Measurements as given in US8426437B2, “Pyrroloquinoline derivatives and their use as protein kinases inhibitors” (Pierre Fabre Medicament, priority 2005, dated 2013).
Counter-ions that a name gives are not always drawn.

How the values were obtained:
Format in all cases: biochemical
[1] = molecular target: T1, RET (Homo sapiens, UniProt P07949); experiment: Inhibition of RET kinase activity, recombinant RET method (Kinase-Glo); conditions: RET 2 μg/ml, poly-EY4 substrate, 20 μM ATP, two hours at 30° C.
T1 construct: purchased Upstate 14-570MG
T1 sequence (P07949 29-1114): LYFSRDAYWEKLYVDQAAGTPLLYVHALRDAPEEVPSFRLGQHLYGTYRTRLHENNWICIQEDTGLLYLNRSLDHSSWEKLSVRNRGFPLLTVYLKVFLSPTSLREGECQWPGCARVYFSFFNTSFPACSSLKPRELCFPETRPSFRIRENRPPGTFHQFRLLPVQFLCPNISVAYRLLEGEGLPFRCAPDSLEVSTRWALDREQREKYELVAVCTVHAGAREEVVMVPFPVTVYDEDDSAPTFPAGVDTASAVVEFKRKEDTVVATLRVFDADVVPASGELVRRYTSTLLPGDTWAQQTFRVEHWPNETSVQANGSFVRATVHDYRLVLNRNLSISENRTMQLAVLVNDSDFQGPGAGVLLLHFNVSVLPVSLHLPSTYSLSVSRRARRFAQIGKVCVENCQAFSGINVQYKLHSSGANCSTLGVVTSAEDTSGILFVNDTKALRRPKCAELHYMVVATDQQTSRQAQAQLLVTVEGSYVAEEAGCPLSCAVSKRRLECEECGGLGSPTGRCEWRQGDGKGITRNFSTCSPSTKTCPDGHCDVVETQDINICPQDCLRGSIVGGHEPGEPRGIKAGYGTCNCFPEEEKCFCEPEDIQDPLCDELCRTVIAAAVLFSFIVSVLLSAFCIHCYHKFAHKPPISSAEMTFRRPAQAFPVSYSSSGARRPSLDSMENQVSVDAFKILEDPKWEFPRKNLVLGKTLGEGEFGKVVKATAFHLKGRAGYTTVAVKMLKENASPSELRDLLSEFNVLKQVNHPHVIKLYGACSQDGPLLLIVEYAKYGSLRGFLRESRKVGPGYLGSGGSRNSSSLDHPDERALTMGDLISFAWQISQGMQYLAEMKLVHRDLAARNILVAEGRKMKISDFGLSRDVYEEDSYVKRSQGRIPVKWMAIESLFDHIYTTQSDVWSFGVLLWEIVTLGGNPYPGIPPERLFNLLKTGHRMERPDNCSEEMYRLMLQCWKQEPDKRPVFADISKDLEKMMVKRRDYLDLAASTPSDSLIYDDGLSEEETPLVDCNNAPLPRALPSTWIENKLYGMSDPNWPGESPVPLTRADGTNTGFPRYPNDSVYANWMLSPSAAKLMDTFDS
Outline: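 Recombinant RET at 2 μg/ml in 20 mM MOPS/NaOH pH 7.0, 1 mM EDTA, 5% glycerol, 0.01% Brij35, 0.1% 2-mercaptoethanol, 1 mg/ml BSA; compounds 10 nM–30 μM final.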

[2] = molecular target: ALK (Homo sapiens, UniProt Q9UM73); experiment: Inhibition of kinase ALK (PLCγ1-GST substrate, anti-phosphotyrosine ELISA); conditions: ALK 180 ng/ml, 250 μM ATP, 30 minutes at 30° C.
ALK, sequence (Q9UM73 19-1620, species assumed): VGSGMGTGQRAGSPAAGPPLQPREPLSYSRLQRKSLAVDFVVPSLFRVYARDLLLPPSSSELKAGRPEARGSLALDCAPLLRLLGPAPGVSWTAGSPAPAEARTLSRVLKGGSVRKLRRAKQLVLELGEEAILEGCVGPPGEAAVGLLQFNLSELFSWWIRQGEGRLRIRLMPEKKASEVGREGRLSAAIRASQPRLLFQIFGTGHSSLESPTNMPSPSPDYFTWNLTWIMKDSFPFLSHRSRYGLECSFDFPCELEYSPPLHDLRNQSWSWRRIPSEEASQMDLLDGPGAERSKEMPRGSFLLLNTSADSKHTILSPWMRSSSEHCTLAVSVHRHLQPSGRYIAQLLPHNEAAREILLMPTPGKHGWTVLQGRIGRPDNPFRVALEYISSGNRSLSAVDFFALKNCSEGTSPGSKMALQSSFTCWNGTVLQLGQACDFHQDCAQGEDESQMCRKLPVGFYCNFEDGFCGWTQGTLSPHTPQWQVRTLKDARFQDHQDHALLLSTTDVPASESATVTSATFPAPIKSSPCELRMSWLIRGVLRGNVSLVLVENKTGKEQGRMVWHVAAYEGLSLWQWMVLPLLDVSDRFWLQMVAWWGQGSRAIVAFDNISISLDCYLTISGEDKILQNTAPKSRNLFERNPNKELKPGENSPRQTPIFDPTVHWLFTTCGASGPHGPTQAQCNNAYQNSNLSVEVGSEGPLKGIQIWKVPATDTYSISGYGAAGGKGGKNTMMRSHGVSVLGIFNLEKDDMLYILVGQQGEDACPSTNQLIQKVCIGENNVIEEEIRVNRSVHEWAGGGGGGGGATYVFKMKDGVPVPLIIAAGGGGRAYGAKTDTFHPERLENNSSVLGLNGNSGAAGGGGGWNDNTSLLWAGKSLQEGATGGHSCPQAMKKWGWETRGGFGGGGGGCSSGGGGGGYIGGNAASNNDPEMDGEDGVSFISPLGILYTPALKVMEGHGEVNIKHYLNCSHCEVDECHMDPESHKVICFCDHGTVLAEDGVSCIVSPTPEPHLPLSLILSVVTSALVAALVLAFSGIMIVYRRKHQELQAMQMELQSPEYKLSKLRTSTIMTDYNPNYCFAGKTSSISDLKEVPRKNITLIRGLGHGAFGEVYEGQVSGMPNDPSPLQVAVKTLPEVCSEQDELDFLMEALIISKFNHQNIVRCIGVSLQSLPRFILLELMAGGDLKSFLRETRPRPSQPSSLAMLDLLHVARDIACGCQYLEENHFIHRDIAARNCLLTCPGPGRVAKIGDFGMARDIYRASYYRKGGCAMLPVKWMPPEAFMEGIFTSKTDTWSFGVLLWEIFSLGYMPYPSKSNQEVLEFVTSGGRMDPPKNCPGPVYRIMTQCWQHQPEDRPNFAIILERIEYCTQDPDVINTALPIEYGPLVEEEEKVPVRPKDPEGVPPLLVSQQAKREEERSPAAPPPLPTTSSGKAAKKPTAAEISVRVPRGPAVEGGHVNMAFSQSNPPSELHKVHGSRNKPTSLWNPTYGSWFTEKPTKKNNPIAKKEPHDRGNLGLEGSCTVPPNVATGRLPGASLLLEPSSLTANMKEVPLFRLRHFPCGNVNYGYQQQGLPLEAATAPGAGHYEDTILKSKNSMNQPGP
Experimental: Incubation is carried out for 30 minutes at 30° C. with agitation.
The signal is read in luminescent mode using a luminometer.

[3] = molecular target: T2, PIM-1 (Homo sapiens, UniProt P11309); experiment: Inhibition of kinase PIM-1 (Kinase-Glo); conditions: PIM-1 0.625 μg/ml, 10 μM ATP, forty minutes at 30° C.
T2 construct: purchased Upstate 14-573
T2 sequence (P11309 whole entry): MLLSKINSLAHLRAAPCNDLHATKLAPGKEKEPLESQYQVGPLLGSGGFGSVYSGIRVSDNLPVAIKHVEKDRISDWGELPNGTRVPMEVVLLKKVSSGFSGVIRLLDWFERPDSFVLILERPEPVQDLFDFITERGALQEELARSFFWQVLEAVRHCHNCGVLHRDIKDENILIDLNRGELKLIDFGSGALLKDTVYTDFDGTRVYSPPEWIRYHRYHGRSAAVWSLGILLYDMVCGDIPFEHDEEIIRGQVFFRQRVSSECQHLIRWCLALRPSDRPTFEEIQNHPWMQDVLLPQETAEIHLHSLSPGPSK
Outline: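 PIM-1 (0.625 μg/ml) in MOPS/NaOH pH 7 with Mg acetate was run with 70 μM S6 kinase/Rsk2 peptide and 10 μM ATP, with compound at 10 nM–30 μM final.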

[4] = molecular target: T3, TrkA (Homo sapiens, UniProt P04629); experiment: Inhibition of kinase TrkA (Kinase-Glo); conditions: TrkA 4 μg/ml, 30 μM ATP, two hours at 30° C.
T3 construct: purchased Upstate 14-571
T3 sequence (P04629 33-796): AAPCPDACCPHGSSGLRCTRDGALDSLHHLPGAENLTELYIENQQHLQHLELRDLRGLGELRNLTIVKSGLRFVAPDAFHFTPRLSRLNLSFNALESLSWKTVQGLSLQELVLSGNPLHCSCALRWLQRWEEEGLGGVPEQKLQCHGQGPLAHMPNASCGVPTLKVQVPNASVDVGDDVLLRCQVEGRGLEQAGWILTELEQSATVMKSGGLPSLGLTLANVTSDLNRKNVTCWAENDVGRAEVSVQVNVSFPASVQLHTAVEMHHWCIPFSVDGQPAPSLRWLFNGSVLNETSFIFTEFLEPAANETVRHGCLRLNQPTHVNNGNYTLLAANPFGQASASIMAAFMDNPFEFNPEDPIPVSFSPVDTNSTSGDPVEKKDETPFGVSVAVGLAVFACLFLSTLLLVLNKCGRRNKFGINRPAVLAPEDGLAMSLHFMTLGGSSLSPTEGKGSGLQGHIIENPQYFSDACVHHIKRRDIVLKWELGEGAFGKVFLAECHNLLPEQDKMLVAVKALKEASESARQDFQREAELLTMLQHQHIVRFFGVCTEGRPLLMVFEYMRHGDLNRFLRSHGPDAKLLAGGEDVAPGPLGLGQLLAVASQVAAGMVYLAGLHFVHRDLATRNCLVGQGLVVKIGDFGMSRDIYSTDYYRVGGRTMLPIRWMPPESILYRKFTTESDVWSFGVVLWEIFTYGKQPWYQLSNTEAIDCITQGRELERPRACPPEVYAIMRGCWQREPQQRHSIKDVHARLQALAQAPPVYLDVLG
Experimental: Protein TrkA (Upstate 14-571; batch #25634U) is incubated at a concentration of 4 μg/ml in a buffer containing 8 mM of MOPS/NaOH pH7, 0.2 mM EDTA, 40 mM MgAc (Sigma #229768), 1 mM DTT (Fluka #43816), NaOV 1 mM, 0.01% Triton Tx100, in the presence of 1 mg/ml of peptide substrate poly-EY (Upstate #P0275), and 30 μM of ATP.
The dilution buffer for TrkA is as follows: 20 mM MOPS/NaOH pH7, 1 mM EDTA, 5% glycerol, 0.01% Brij35, 0.1% 2-mercapto, 1 mg/ml BSA.
(§1) The compound to be tested is first added to the enzyme to give a reaction volume of 50 μl. The dilution of the compounds of the invention is distributed so as to obtain a scale of final concentrations between 10 nM and 30 μM.
(§2) After incubation of the reaction mixture for two hours at 30° C., the level of ATP that remains is assayed using the Kinase-Glo Luminescent Kinase Assay (Promega #V6712) according to the conditions recommended by the supplier. The luminescence induced is read in a plate reader (Envision-Perkin Elmer).

[5] = molecular target: T4, TrkB (Homo sapiens, UniProt Q16620); experiment: Inhibition of kinase TrkB (Kinase-Glo); conditions: TrkB 4 μg/ml, 40 μM ATP, two hours at 30° C.
T4 construct: purchased Upstate 14-507
T4 sequence (Q16620 32-822): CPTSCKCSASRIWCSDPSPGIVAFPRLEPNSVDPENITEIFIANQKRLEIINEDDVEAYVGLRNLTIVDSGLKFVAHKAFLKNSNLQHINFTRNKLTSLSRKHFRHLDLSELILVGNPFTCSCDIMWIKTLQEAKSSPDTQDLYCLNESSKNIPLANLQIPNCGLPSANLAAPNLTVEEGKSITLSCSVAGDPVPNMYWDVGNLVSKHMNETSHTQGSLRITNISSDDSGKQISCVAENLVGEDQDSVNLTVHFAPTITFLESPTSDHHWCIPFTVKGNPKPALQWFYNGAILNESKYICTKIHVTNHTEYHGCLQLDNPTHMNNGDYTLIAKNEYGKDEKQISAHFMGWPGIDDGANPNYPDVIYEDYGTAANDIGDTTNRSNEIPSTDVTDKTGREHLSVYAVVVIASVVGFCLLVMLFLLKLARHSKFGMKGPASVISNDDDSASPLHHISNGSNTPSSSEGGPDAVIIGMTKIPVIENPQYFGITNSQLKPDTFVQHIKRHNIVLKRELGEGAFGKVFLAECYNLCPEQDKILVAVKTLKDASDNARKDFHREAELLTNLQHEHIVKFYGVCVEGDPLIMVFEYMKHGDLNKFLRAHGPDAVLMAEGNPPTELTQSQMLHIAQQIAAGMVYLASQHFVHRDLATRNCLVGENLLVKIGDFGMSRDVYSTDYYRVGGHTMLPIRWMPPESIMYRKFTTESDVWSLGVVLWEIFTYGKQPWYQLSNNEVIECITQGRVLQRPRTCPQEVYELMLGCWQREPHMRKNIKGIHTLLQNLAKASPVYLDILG
Experimental: Protein TrkB (Upstate 14-507; batch #25578U) is incubated at a concentration of 4 μg/ml in a buffer containing 8 mM of MOPS/NaOH pH7, 0.2 mM EDTA, 40 mM MgAc (Sigma #229768), 1 mM DTT (Fluka #43816), NaOV 1 mM, 25 mM 2-glycerolphosphate (Sigma #G9891), in the presence of 2.5 mg/ml of peptide substrate poly-EY (Upstate #P0275), and 40 μM of ATP.
The dilution buffer for TrkB is as follows: 20 mM MOPS/NaOH pH7, 1 mM EDTA, 5% glycerol, 0.01% Brij35, 0.1% 2-mercapto, 1 mg/ml BSA.
as §1, §2

Structure (SMILES) | IC50 [1] [nM] | IC50 [2] [nM] | IC50 [3] [nM] | IC50 [4] [nM] | IC50 [5] [nM]
COC(=O)c1c[nH]c2c(=O)[nH]c3ccc(S(=O)(=O)NC4CCCNC4)cc3c12 (stereo not drawn) [Compound 112, 4-Oxo-8-(piperidin-3-ylsulfamoyl)-4,5-dihydro-3H-pyrrolo[2,3-c]quinoline-1-methyl carboxylate] | 1000 to 10000 | 100 to 1000 | 1000 to 10000 | – | –
CCOC(=O)c1c[nH]c2c(=O)[nH]c3ccc(S(=O)(=O)NC4CN5CCC4CC5)cc3c12 (stereo not drawn) [Compound 94, 8-(1-Azabicyclo[2.2.2]oct-3-ylsulfamoyl)-4-oxo-4,5-dihydro-3H-pyrrolo[2,3-c]quinoline-1-ethyl carboxylate] | 100 to 1000 | 100 to 1000 | – | – | –
CCCOC(=O)c1c[nH]c2c(=O)[nH]c3ccc(S(=O)(=O)N(CC(C)(C)NC)C4CC4)cc3c12 [Compound 141, 8-[Cyclopropyl-(2-methyl-2-methylamino-propyl)-sulfamoyl]-4-oxo-4,5-dihydro-3H-pyrrolo[2,3-c]quinoline-1-propyl carboxylate hydrochloride] | 100 to 1000 | 100 to 1000 | – | – | –
CCOC(=O)c1c[nH]c2c(=O)[nH]c3ccc(S(=O)(=O)NC4CCNCC4)cc3c12 [Compound 91, 4-oxo-8-(piperidin-4-ylsulfamoyl)-4,5-dihydro-3H-pyrrolo[2,3-c]quinoline-1-ethyl carboxylate] | 100 to 1000 | 100 to 1000 | 1000 to 10000 | – | –
CCOC(=O)c1c[nH]c2c(=O)[nH]c3ccc(S(=O)(=O)NC4CC4)cc3c12 [Compound 123, 8-Cyclopropylsulfamoyl-4-oxo-4,5-dihydro-3H-pyrrolo[2,3-c]quinoline-1-ethyl carboxylate] | 100 to 1000 | 1000 to 10000 | – | – | –
CCCOC(=O)c1c[nH]c2c(=O)[nH]c3ccc(S(=O)(=O)N(C)C4CN(C(c5ccccc5)c5ccccc5)C4)cc3c12 [Compound 130, 8-[(1-Benzhydryl-azetidin-3-yl)-methyl-sulfamoyl]-4-oxo-4,5-dihydro-3H-pyrrolo[2,3-c]quinoline-1-propyl carboxylate] | 100 to 1000 | 100 to 1000 | – | – | –
CCOC(=O)c1c[nH]c2c(=O)[nH]c3ccc(-c4csc(Nc5ccccc5)n4)cc3c12 [Compound 271, 4-Oxo-8-(2-phenylamino-thiazol-4-yl)-4,5-dihydro-3H-pyrrolo[2,3-c]quinoline-1-ethyl carboxylate] | 100 to 1000 | 100 to 1000 | 10000 to 100000 | 1000 to 10000 | 1000 to 10000

Continued, values first:

IC50 [1] [nM] | IC50 [2] [nM] | IC50 [3] [nM] | IC50 [4] [nM] | IC50 [5] [nM] | Structure (SMILES)
100 to 1000 | 1000 to 10000 | 1000 to 10000 | – | – | COC(=O)c1c[nH]c2c(=O)[nH]c3ccc(S(=O)(=O)NC4CCNCC4)cc3c12 [Compound 113, 4-Oxo-8-(piperidin-4-ylsulfamoyl)-4,5-dihydro-3H-pyrrolo[2,3-c]quinoline-1-methyl carboxylate]
100 to 1000 | 100 to 1000 | 10000 to 100000 | – | – | CCOC(=O)c1c[nH]c2c(=O)[nH]c3ccc(S(=O)(=O)NC[C@H]4CCNC4)cc3c12 [Compound 97, (S)-4-Oxo-8-[(pyrrolidin-3-methyl)-sulfamoyl]-4,5-dihydro-3H-pyrrolo[2,3-c]quinoline-1-ethyl carboxylate]
100 to 1000 | 10000 to 100000 | 10000 to 100000 | – | – | CCOC(=O)c1c[nH]c2c(=O)[nH]c3ccc(S(=O)(=O)NCCCN(C)C)cc3c12 [Compound 32, 8-(3-Dimethylamino-propylsulfamoyl)-4-oxo-4,5-dihydro-3H-pyrrolo[2,3-c]quinoline-1-ethyl carboxylate]
100 to 1000 | 100 to 1000 | – | – | – | CCCOC(=O)c1c[nH]c2c(=O)[nH]c3ccc(S(=O)(=O)N(C)CC(N)=O)cc3c12 [Compound 177, 8-(Carbamoylmethyl-methyl-sulfamoyl)-4-oxo-4,5-dihydro-3H-pyrrolo[2,3-c]quinoline-1-propyl carboxylate]
100 to 1000 | 100 to 1000 | 1000 to 10000 | – | – | CCOC(=O)c1c[nH]c2c(=O)[nH]c3ccc(S(=O)(=O)N4CC5CNCC5C4)cc3c12 (stereo not drawn) [Compound 93, 8-(Octahydro-pyrrolo[3,4-c]pyrrole-2-sulfonyl)-4-oxo-4,5-dihydro-3H-pyrrolo[2,3-c]quinoline-1-ethyl carboxylate]
100 to 1000 | 1000 to 10000 | 10000 to 100000 | – | – | CCOC(=O)c1c[nH]c2c(=O)[nH]c3ccc(S(=O)(=O)NCCCCN)cc3c12 [Compound 33, 8-(4-Amino-butylsulfamoyl)-4-oxo-4,5-dihydro-3H-pyrrolo[2,3-c]quinoline-1-ethyl carboxylate]
